Data published in US20060142390A1, “Treatment for severe melancholic depression” (priority 2004, published 2006).

Experiments:
[1] = tested on: outpatients with a new episode of depression; test: Study of 96% pure EPA (ethyl ester) as monotherapy versus placebo in depression; Bech Scale and depression sub score of the HDRS; format: in vivo, human; design: key to Bech score, Mean: Bech score = sum of 6 HDRS items; key to Change of Bech score: reduction of Bech score (sum of 6 HDRS items) over trial; key to Depression subscore (item1, item2, item3), Mean / Depression subscore, Mean: sum of HDRS item 1, item 2 and item 3; details: for Bech score, Mean / Depression subscore (item1, item2, item3), Mean / Depression subscore, Mean: EPA any dose; for Depression subscore (item1, item2, item3), Mean: ITT
Method: (§1) A study was performed on outpatients with a new episode of depression using 96% pure EPA, as the ethyl ester, as a monotherapy for treatment of depression. The primary objective was to examine the effects of 96% pure EPA versus placebo on the Hamilton Depression Rating Scale (HDRS) in patients with a new or recurrent episode of depression. • 1. The Bech Scale (sum of 6 items as specified) was used as the instrument to measure efficacy across all subjects, i.e. the reduction of the Bech Score in the course of the trial, by comparing this change in the active groups with that in the placebo group. The Bech Scale consists of 6 items from the original HDRS: depression, guilt, work/interest, psychomotor retardation, anxiety psychic and general somatic symptoms (loss of energy, tiredness) and has been successfully used in several trials (Bech 2002 Acta Psychiatry Scand vol 106; p 252-264). • 2. For the differentiation of the subgroups of subjects, item 6 (early morning awakening), item 12 (loss of appetite) and item 16 (weight loss) were chosen from the HDRS, to identify subjects suffering from severe melancholic features. These items are also related to the definition of the melancholia specifier according the DSM-IV (American Psychiatric Association: 4th Edition, 2000). This specification was only done once, i.e. at the baseline visit (v1). Patients with a score of 2 in any of these 3 items were regarded as having severe melancholic items and therefore belonging the severe melancholic group, the others were regarded as not belonging to this group. The characteristics could change in the course of treatment, therefore it was important that only the condition at baseline was used for the definition. Results: An analysis of a less frequently used, but pre-specified sub score, i.e. the depression sub score, which is the sum of item 1 (depression), item 2 (guilt) and item 3 (suicidality), confirmed the findings.

[2] = tested on: non-responsive patients on standard therapy; test: Earlier trials of 96% pure EPA as add on to standard therapy in non-responsive patients; Bech score over time; format: in vivo, human; design: key to Bech score, Mean: Bech score = sum of 6 HDRS items; details: for Bech score, Mean: Add on therapy
Description: as §1, with “The” for “A study was performed on outpatients with a new episode of depression using 96% pure EPA, as the ethyl ester, as a monotherapy for treatment of depression. The”, “Results:” for “Results: An analysis of a less frequently used, but pre-specified sub score, i.e. the depression sub score, which is the sum of item 1 (depression), item 2 (guilt) and item 3 (suicidality), confirmed the findings.”
The following presents the Bech-Score over time in the severe melancholic groups, contrasted with those subjects showing no severe melancholic signs.

CC/C=C\C/C=C\C/C=C\C/C=C\C/C=C\CCCC(=O)O [EPA, all cis (or all z) 5,8,11,14,17-eicosapentaenoic acid]
Change of Bech score compared with placebo ([1]; ITT group): no significant difference
Change of Bech score ([1]; ITT group, all subjects, placebo changed by 3.9 points): 4.0 points
Bech score, Mean ([1]; ITT group, Bech l2, after 2 weeks, last observation carried forward): 8.1
Bech score, Mean ([1]; ITT group, Bech l4, after 4 weeks, last observation carried forward): 6.6
Bech score, Mean ([1]; ITT group, Bech l6, after 6 weeks, last observation carried forward): 6.3
Bech score, Mean ([1]; ITT group, Bech v1 = baseline week 1): 10.3
Depression subscore (item1, item2, item3), Mean ([1]; baseline): 4.3
Depression subscore (item1, item2, item3), Mean ([1]; outcome, LOCF): 2.3
Bech score, Mean ([1]; No severe melancholic signs, Bech l2 (week 2)): 8.8
Bech score, Mean ([1]; No severe melancholic signs, Bech l4 (week 4)): 6.3
Bech score, Mean ([1]; No severe melancholic signs, Bech l6 (week 6)): 6.1
Bech score, Mean ([1]; No severe melancholic signs, Bech v1 (baseline)): 10.2
Depression subscore, Mean ([1]; No severe melancholic signs, baseline): 4.4
Depression subscore, Mean ([1]; No severe melancholic signs, outcome): 2.4
Bech score, Mean ([1]; With severe melancholic signs, Bech l2 (week 2)): 7.3
Bech score, Mean ([1]; With severe melancholic signs, Bech l4 (week 4)): 7.0
Bech score, Mean ([1]; With severe melancholic signs, Bech l6 (week 6)): 6.5
Bech score, Mean ([1]; With severe melancholic signs, Bech v1 (baseline)): 10.3
Depression subscore, Mean ([1]; With severe melancholic signs, baseline): 4.1
Depression subscore, Mean ([1]; With severe melancholic signs, outcome): 2.3
Change of Bech score compared with placebo ([1]; non-severe melancholic group): not significantly different
Change of Bech score ([1]; non-severe melancholic group, placebo change 5.0): 4.1
Depression sub score outcome compared with placebo (ANVOVA, baseline as covariate) ([1]; patients with severe melancholic signs): significant superiority
Improvement of depression sub score ([1]; patients with severe melancholic signs, placebo 0.7 points, p<0.05): 1.8 points
Improvement of Bech score ([1]; patients with severe melancholic signs, placebo 2.9 points, p<0.05): 3.8 points
Bech score, Mean ([2]; no severe melancholic signs, Bech l2 (week 2)): 8.3
Bech score, Mean ([2]; no severe melancholic signs, Bech l4 (week 4)): 7.3
Bech score, Mean ([2]; no severe melancholic signs, Bech l8 (week 8)): 6.7
Bech score, Mean ([2]; no severe melancholic signs, Bech l12 (week 12)): 6.7
Bech score, Mean ([2]; no severe melancholic signs, Bech v1 (baseline)): 9.8
Bech score, Mean ([2]; with severe melancholic signs, Bech l2 (week 2)): 8.1
Bech score, Mean ([2]; with severe melancholic signs, Bech l4 (week 4)): 6.8
Bech score, Mean ([2]; with severe melancholic signs, Bech l8 (week 8)): 5.9
Bech score, Mean ([2]; with severe melancholic signs, Bech l12 (week 12)): 5.3
Bech score, Mean ([2]; with severe melancholic signs, Bech v1 (baseline)): 9.0
Improvement of Bech score ([2]; add on therapy, patients with severe melancholic features, 12 weeks, placebo 2.8 points, p<0.05): 3.7 points
Bech score outcome at 12 weeks compared with placebo (ANVOVA, baseline as covariate, last observation carried forward) ([2]; add on therapy, patients with severe melancholic signs): statistically superior
